Laboratory results as given in PubChem BioAssay (NCI).
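All cell lines were grown in 96-well plates and treated with compound for 48 hours. GI50 is the concentration that inhibits growth by half. The concentration for full growth arrest is given as TGI.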

Key:
Assay in all cases: NCI anticancer screen, dose series, 48 h
LOX IMVI melanoma = test system: LOX IMVI melanoma
SK-MEL-2 melanoma = test system: SK-MEL-2 melanoma
M14 melanoma = test system: M14 melanoma
ACHN renal = test system: ACHN renal
K-562 leukemia = test system: K-562 leukemia
NCI-H522 lung = test system: NCI-H522 lung
EKVX NSCLC = test system: EKVX NSCLC
SF-295 CNS = test system: SF-295 CNS
HS 578T breast = test system: HS 578T breast
BT-549 breast = test system: BT-549 breast

| SMILES | TGI (LOX IMVI melanoma) [µM] | TGI (SK-MEL-2 melanoma) [µM] | TGI (M14 melanoma) [µM] | TGI (ACHN renal) [µM] | TGI (K-562 leukemia) [µM] | TGI (NCI-H522 lung) [µM] | TGI (EKVX NSCLC) [µM] | TGI (SF-295 CNS) [µM] | GI50 (SK-MEL-2 melanoma) [µM] | GI50 (M14 melanoma) [µM] | GI50 (ACHN renal) [µM] | GI50 (HS 578T breast) [µM] | TGI (HS 578T breast) [µM] | GI50 (K-562 leukemia) [µM] | GI50 (NCI-H522 lung) [µM] | GI50 (EKVX NSCLC) [µM] | GI50 (SF-295 CNS) [µM] | GI50 (LOX IMVI melanoma) [µM] | GI50 (BT-549 breast) [µM] | TGI (BT-549 breast) [µM] |
| --- | --- | --- | --- | --- | --- | --- | --- | --- | --- | --- | --- | --- | --- | --- | --- | --- | --- | --- | --- | --- |
| COc1ccccc1/C=C1\CCC(CNc2ccc(Cl)cc2)C1=O (stereo unspecified) | 9.22 | 26.7 | 9.72 | 14.6 | 19 | 4.45 | 20.2 | 15.4 |  |  |  |  |  |  |  |  |  |  |  |  |
| CS(=O)(=O)OCCN1CCN(C(=O)c2cccc3c(Nc4ccc(S(N)(=O)=O)cc4)c4ccccc4nc23)CC1 | > 59.1 | > 100 | > 100 | > 100 | > 81.1 | > 100 | > 100 | > 100 |  |  |  |  |  |  |  |  |  |  |  |  |
| c1cc(C2CCCCC2)ccc1OCCCCCCN1CCNCC1 |  | 3.71 | 4.33 | 3.33 | 3.11 | 3.38 | 47.3 | 3.77 | 1.82 | 1.98 | 1.78 | 1.96 | 4.48 | 1.46 | 1.7 | 5.76 | 1.92 |  |  |  |
| Nc1ccc(N=Nc2ccccc2)c(N)n1 | > 100 |  | 74.9 | > 100 | > 100 | 86.2 | 33.4 | 50.9 |  | 29.4 | 37.2 |  |  | 42.7 | 22.9 | 4.08 | 17 | 29 | 16.6 | 46.1 |
| CS(=O)(=O)N(CCC#N)c1ccc(/C=N/NC(=O)CC(=O)Nc2cccc(Cl)c2)cc1 | > 100 | > 100 | > 100 | > 100 | > 100 | > 100 | > 100 | > 100 |  |  |  |  |  |  |  |  |  |  |  |  |
| O=CN1N=C(c2ccc(Nc3ccnc4cc(Cl)ccc34)cc2)CC1c1ccccc1 (stereo unspecified) | 3.33 |  | 31 | 84.4 |  |  | > 100 | 8.91 |  | 4.12 | 4.21 | 3.77 | 71.1 |  |  | 4.94 | 2.41 | 1.61 | 3.81 | 15.6 |
| N#CCCN(CCC#N)c1ccc(/C=C2\N=C(COc3ccc(Cl)cc3Cl)OC2=O)cc1 | > 100 | > 100 | > 100 |  | > 100 | > 100 | > 100 | > 100 |  |  |  |  |  |  |  |  |  |  |  |  |
| COc1ccc(C2=CC(c3cc(OC)c(OC)c(OC)c3)NC(=O)N2)cc1OC (stereo unspecified) | 11.7 | 24.3 | 11.5 | 43.6 | 24.5 | 11.2 | 23.2 | 7.87 | 4.96 | 3.59 | 3.5 |  |  | 1.96 | 2.78 | 2.85 | 2.34 | 3.05 |  |  |
| COc1cc2c(cc1OCCCOC1=C=C=C(c3ccc4c(c3)c3cc(-c5ccc(OCCCOc6cc7c(cc6OC)C(=O)N6CCC[C@H]6C=N7)cc5)ccc3n4S(=O)(=O)c3ccc(C)cc3)C=C1)N=C[C@@H]1CCCN1C2=O | 7.51 |  | 6.93 | 7.8 | > 18.6 | 39.6 | 22.9 | 4.62 |  | 1.58 | 1.75 | 1.42 | > 10.8 | 1.06 | 3.53 | 9.35 | 1.14 | 1.49 | 1.16 | 4.59 |
